# Laboratory results from PubChem BioAssay AID330 (DTP/NCI, 2004).
# Values joined by “and” are separate entries in the source; they are usually repeats but may differ in a detail not shown here. Equal entries are not always repeated. Toxic doses and inconclusive results are not listed.
# System: P388 leukemia ip, CD2F1 mice, survival T/C
# Test: NCI In Vivo Anticancer Drug Screen. Data for tumor model P388 Leukemia (intraperitoneal) in CD2F1 (CDF1) mice
# Conditions: endpoint: median survival time, higher = longer survival
# Outline: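 Mice carrying the transplanted tumor received test compound or vehicle. Survival was recorded in each group, and the value is the treated-group measurement divided by that of the vehicle-treated control group.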
# [1] = dose: 25.0 mg/kg/injection, schedule: Q04DX003 (ip), vehicle: saline with Tween-80
# [2] = dose: 50.0 mg/kg/injection, schedule: Q04DX003 (ip), vehicle: saline with Tween-80
# [3] = dose: 100.0 mg/kg/injection, schedule: Q04DX003 (ip), vehicle: saline with Tween-80
# [4] = dose: 200.0 mg/kg/injection, schedule: Q04DX003 (ip), vehicle: saline with Tween-80
# [5] = dose: 400.0 mg/kg/injection, schedule: Q04DX003 (ip), vehicle: saline with Tween-80
# [6] = dose: 50.0 mg/kg/injection, schedule: Q01DX005 (ip), vehicle: saline with Tween-80
# [7] = dose: 100.0 mg/kg/injection, schedule: Q01DX005 (ip), vehicle: saline with Tween-80
# [8] = dose: 200.0 mg/kg/injection, schedule: Q01DX005 (ip), vehicle: saline with Tween-80
# [9] = dose: 60.0 mg/kg/injection, schedule: Q01DX005 (ip), vehicle: Klucel (hydroxypropylcellulose) (HPC)
# [10] = dose: 120.0 mg/kg/injection, schedule: Q01DX005 (ip), vehicle: Klucel (hydroxypropylcellulose) (HPC)
# [11] = dose: 50.0 mg/kg/injection, schedule: Q01DX009 (ip), vehicle: Klucel (hydroxypropylcellulose) (HPC)
# [12] = dose: 100.0 mg/kg/injection, schedule: Q01DX009 (ip), vehicle: Klucel (hydroxypropylcellulose) (HPC)
# [13] = dose: 200.0 mg/kg/injection, schedule: Q01DX009 (ip), vehicle: Klucel (hydroxypropylcellulose) (HPC)
# [14] = dose: 240.0 mg/kg/injection, schedule: Q01DX005 (ip), vehicle: Klucel (hydroxypropylcellulose) (HPC)
# [15] = dose: 50.0 mg/kg/injection, schedule: Q01DX005 (ip), vehicle: saline
compound,measurement,setting,value
S=C(NC1CCCCC1)N1CCC(CCCC2CCN(C(=S)NC3CCCCC3)CC2)CC1,T/C,[1],90 % of control
same,T/C,"dose: 50.0 mg/kg/injection, schedule: Q01DX009 (ip), vehicle: saline with Tween-80",90 % of control
same,T/C,[2],90 % of control
same,T/C,"dose: 100.0 mg/kg/injection, schedule: Q01DX009 (ip), vehicle: saline with Tween-80",90 % of control and 95 % of control
same,T/C,[3],90 % of control
same,T/C,"dose: 200.0 mg/kg/injection, schedule: Q01DX009 (ip), vehicle: saline with Tween-80",90 % of control
same,T/C,[4],90 % of control
same,T/C,"dose: 400.0 mg/kg/injection, schedule: Q01DX009 (ip), vehicle: saline with Tween-80",95 % of control
same,T/C,[5],90 % of control
Cc1ccc(OCC2CO2)c(Br)c1 (configuration not stated),T/C,"dose: 25.0 mg/kg/injection, schedule: Q01DX005 (ip), vehicle: saline with Tween-80",101 % of control and 104 % of control
same,T/C,[6],100 % of control and 106 % of control (2×)
same,T/C,[7],101 % of control and 96 % of control
same,T/C,[8],101 % of control and 105 % of control and 111 % of control
CNC(=O)On1cc(Cl)cc1C#N,T/C,"dose: 50.0 mg/kg/injection, schedule: Q01DX001 (ip), vehicle: Klucel (hydroxypropylcellulose) (HPC)",101 % of control
same,T/C,"dose: 100.0 mg/kg/injection, schedule: Q01DX001 (ip), vehicle: Klucel (hydroxypropylcellulose) (HPC)",118 % of control
Nc1nc(-c2ccc(Cl)cc2)nc2sc3c(c12)CCCCC3,T/C,[6],90 % of control
same,T/C,[7],90 % of control
same,T/C,[8],95 % of control
CCC[CH2][Sn]([Cl])([Cl])[CH2]CCC.c1ccc(-c2nnc(-c3ccccn3)nc2-c2ccccc2)cc1,T/C,[9],106 % of control
same,T/C,[10],106 % of control
CSC(=S)N/N=C(\C)c1ccccc1,T/C,"dose: 1.56 mg/kg/injection, schedule: Q01DX009 (ip), vehicle: saline",99 % of control
same,T/C,"dose: 3.12 mg/kg/injection, schedule: Q01DX009 (ip), vehicle: saline",100 % of control
same,T/C,"dose: 6.25 mg/kg/injection, schedule: Q01DX009 (ip), vehicle: saline",94 % of control and 97 % of control
same,T/C,"dose: 100.0 mg/kg/injection, schedule: Q01DX009 (ip), vehicle: saline",98 % of control
same,T/C,"dose: 200.0 mg/kg/injection, schedule: Q01DX009 (ip), vehicle: saline",90 % of control
O=C1CCC(NCCc2ccccc2)C(=O)O1 (configuration not stated),T/C,[11],98 % of control
same,T/C,[12],92 % of control
same,T/C,[13],103 % of control
C/C(=N\NC(=S)Nc1cccc2cccc(S(=O)(=O)O)c12)c1ccccn1,T/C,[6],102 % of control
same,T/C,[7],100 % of control
same,T/C,[8],112 % of control
O=C1c2ccccc2-c2nnsc21,T/C,[9],98 % of control
same,T/C,[10],107 % of control
same,T/C,[14],100 % of control
CC1(O)CCC(O)CC1CC(=O)O (configuration not stated),T/C,[15],107 % of control
same,T/C,"dose: 100.0 mg/kg/injection, schedule: Q01DX005 (ip), vehicle: saline",100 % of control
same,T/C,"dose: 200.0 mg/kg/injection, schedule: Q01DX005 (ip), vehicle: saline",105 % of control
Clc1ccc(-c2nc3ccccc3nc2-c2ccc(Cl)cc2)cc1,T/C,[11],101 % of control
same,T/C,[12],111 % of control
same,T/C,[13],106 % of control
CCCCOc1ccc(-c2c(COC(=O)NC)c(COC(=O)NC)c(C)n2C)cc1,T/C,"dose: 7.5 mg/kg/injection, schedule: Q01DX009 (ip), vehicle: distilled water + Tween-80",120 % of control
COc1cc(C(=O)OC(CN2CCOCC2)Cn2nnc3c(OC)c(OC)c(OC)cc3c2=O)cc(OC)c1OC (configuration not stated),T/C,"dose: 50.0 mg/kg/injection, schedule: Q01DX009 (ip), vehicle: water",100 % of control
same,T/C,"dose: 100.0 mg/kg/injection, schedule: Q01DX009 (ip), vehicle: water",100 % of control
same,T/C,"dose: 200.0 mg/kg/injection, schedule: Q01DX009 (ip), vehicle: water",108 % of control
c1ccc2c3ccc(c2c1)CCc1ccc(c2ccccc12)CC3,T/C,"dose: 100.0 mg/kg/injection, schedule: Q04DX003 (ip), vehicle: other",96 % of control
same,T/C,"dose: 200.0 mg/kg/injection, schedule: Q04DX003 (ip), vehicle: other",90 % of control
CCc1[nH]c2ccccc2c1C(=O)c1ccncc1,T/C,"dose: 100.0 mg/kg/injection, schedule: Q04DX003 (ip), vehicle: suspension in saline",103 % of control
same,T/C,"dose: 200.0 mg/kg/injection, schedule: Q04DX003 (ip), vehicle: suspension in saline",101 % of control
same,T/C,"dose: 400.0 mg/kg/injection, schedule: Q04DX003 (ip), vehicle: suspension in saline",108 % of control
Cc1ccc(NCCNCC(O)CO)c2c(=O)c3ccccc3sc12 (configuration not stated),T/C,"dose: 12.5 mg/kg/injection, schedule: Q01DX005 (ip), vehicle: Klucel (hydroxypropylcellulose) (HPC)",109 % of control
same,T/C,"dose: 25.0 mg/kg/injection, schedule: Q01DX005 (ip), vehicle: Klucel (hydroxypropylcellulose) (HPC)",118 % of control
same,T/C,[15],151 % of control
Nc1cccc(NCc2ccccn2)n1,T/C,"dose: 50.0 mg/kg/injection, schedule: Q01DX005 (ip), vehicle: Klucel (hydroxypropylcellulose) (HPC)",101 % of control
same,T/C,"dose: 100.0 mg/kg/injection, schedule: Q01DX005 (ip), vehicle: Klucel (hydroxypropylcellulose) (HPC)",104 % of control
Cc1noc(N)c1Sc1ccc(Br)cc1,T/C,[6],91 % of control
same,T/C,[7],100 % of control
same,T/C,[8],108 % of control
CC(=N\[O-])/C(C)=N/O.CC(=N\[O-])/C(C)=N/O.CC(=O)[O-].CC(=O)[O-].O.[Rh+2].[Rh+2],T/C,"dose: 6.25 mg/kg/injection, schedule: Q01DX009 (ip), vehicle: saline with Tween-80",123 % of control
same,T/C,"dose: 12.5 mg/kg/injection, schedule: Q01DX009 (ip), vehicle: saline with Tween-80",119 % of control
CCOc1nc(N)nc(C)c1N=Nc1ccccc1OC,T/C,[9],103 % of control
same,T/C,[10],100 % of control
same,T/C,[14],100 % of control
[N-]=[N+]=CC(=O)NCC(=O)NN=C(CO)CO,T/C,"dose: 180.0 mg/kg/injection, schedule: Q01DX009 (ip), vehicle: water",154 % of control
same,T/C,"dose: 270.0 mg/kg/injection, schedule: Q01DX009 (ip), vehicle: water",172 % of control
same,T/C,"dose: 400.0 mg/kg/injection, schedule: Q01DX009 (ip), vehicle: water",172 % of control
same,T/C,"dose: 600.0 mg/kg/injection, schedule: Q01DX009 (ip), vehicle: water",181 % of control
CC[C@@]1(O)C[C@H](OC2CC(N(C)C)C(OC3CC(O)C(O[C@@H]4O[C@@H](C)C(=O)C=C4N)C(C)O3)C(C)O2)c2c(cc3c(c2O)C(=O)c2c(O)ccc(O)c2C3=O)[C@H]1C(=O)OC (some centres not stated),T/C,"dose: 0.19 mg/kg/injection, schedule: Q01DX009 (ip), vehicle: saline",150 % of control
same,T/C,"dose: 0.38 mg/kg/injection, schedule: Q01DX009 (ip), vehicle: saline with Tween-80",161 % of control
same,T/C,"dose: 0.75 mg/kg/injection, schedule: Q01DX009 (ip), vehicle: saline with Tween-80",175 % of control
same,T/C,"dose: 0.75 mg/kg/injection, schedule: Q01DX009 (ip), vehicle: saline",163 % of control
same,T/C,"dose: 1.5 mg/kg/injection, schedule: Q01DX009 (ip), vehicle: saline with Tween-80",89 % of control
same,T/C,"dose: 1.5 mg/kg/injection, schedule: Q01DX009 (ip), vehicle: saline",182 % of control
same,T/C,"dose: 3.0 mg/kg/injection, schedule: Q01DX009 (ip), vehicle: saline",94 % of control
same,T/C,"dose: 1.0 micrograms/kg/injection, schedule: Q01DX005 (ip), vehicle: Klucel (hydroxypropylcellulose) (HPC)",102 % of control
same,T/C,"dose: 2.0 micrograms/kg/injection, schedule: Q01DX005 (ip), vehicle: Klucel (hydroxypropylcellulose) (HPC)",106 % of control
same,T/C,"dose: 4.0 micrograms/kg/injection, schedule: Q01DX005 (ip), vehicle: Klucel (hydroxypropylcellulose) (HPC)",102 % of control
same,T/C,"dose: 8.0 micrograms/kg/injection, schedule: Q01DX005 (ip), vehicle: Klucel (hydroxypropylcellulose) (HPC)",102 % of control
CCOC(=S)c1cc(C(=S)OCC)cc(C(C)(C)C)c1,T/C,[3],103 % of control
same,T/C,[4],108 % of control
same,T/C,[5],113 % of control
Cc1nc(N)c2nc(SCc3ccc(Cl)cc3)c(N)nc2n1,T/C,[1],100 % of control
same,T/C,[2],90 % of control
same,T/C,[3],92 % of control
COc1ccc(C2c3cc4c(cc3OC(N3CCCC3)C2C)OCO4)cc1 (configuration not stated),T/C,"dose: 7.5 mg/kg/injection, schedule: Q01DX005 (ip), vehicle: saline with Tween-80",90 % of control
same,T/C,"dose: 15.0 mg/kg/injection, schedule: Q01DX005 (ip), vehicle: saline with Tween-80",90 % of control
same,T/C,"dose: 30.0 mg/kg/injection, schedule: Q01DX005 (ip), vehicle: saline with Tween-80",94 % of control
same,T/C,"dose: 240.0 mg/kg/injection, schedule: Q01DX005 (ip), vehicle: saline with Tween-80",90 % of control
